From paper PMC9322565 (Chemmedchem, 2022)
In brackets after ≈: the same amount, converted by molar mass. Where two headings read alike, the source gives them in different places.

Columns and labels:
[1] = tested on: L. major IR‐173 promastigotes; assay: Antipromastigote assay (resazurin); type: cell-based; settings: Leishmania major, read-out: Antipromastigote activity, IC50 ±SD, IR‐173
Protocol: (§1) Antipromastigote assay: The antipromastigote activity of synthesized compounds was evaluated as described previously by […] al.[47] using L. donovani 9515 (MHOM/IN/95/9515) and L. major IR-173 (MHOM/IR/-173). […] Al dri c h) […] The prom astigotes were […] 25 °C. […] Therm ofisher Scientific) in the presence of: […] com pounds for IC50 determination. […] blank. […] Em etine served as the standard cytotoxic drug. […] References […]

[2] = tested on: L. donovani 9515 promastigotes; assay: Antipromastigote assay (resazurin); type: cell-based, Leishmania donovani; settings: for IC50: Leishmania donovani, read-out: Antipromastigote activity, IC50 ±SD, 9515
Protocol: as §1

[3] = tested on: L. donovani 9515 amastigotes; assay: Anti‐amastigote assay, intramacrophage (THP‐1), resazurin; type: cell-based, Leishmania donovani; settings: for IC50: Leishmania donovani, THP-1, L. donovani 9515 intramacrophage amastigotes, read-out: Anti‐amastigote activity, IC50 ±SD, 9515; for fold selective antiparasitic action against L. donovani amastigote in the presence of mammalian cells: HEK‐293 and THP‐1; for fold higher potency than the NF antibiotics: L. donovani amastigote; for fold more specificity for donovani amastigote than AMB: comparison of SpI2 values vs. AMB 0.4; for Selectivity index SI2: L. donovani 9515: IC50 HEK‐293/IC50 amastigote; for Specificity index SpI2: L. donovani 9515: IC50 promastigote/IC50 amastigote; for Selectivity index SI4: L. donovani 9515: IC50 THP‐1/IC50 amastigote
Protocol: (§2) For the anti‐amastigote assay, differentiated plates were carefully washed with PBS, followed by the addition of 200 μL of stationary phase promastigotes in RPMI 1640 medium with 2 % FBS. An MOI of 30 : 1 was used for all three Leishmania strains. […] The treated plates were incubated for 72 hours. After incubation, the plates were gently washed three times with PBS to remove any remaining extracellular parasites. The wells were then treated with 20 μL of 0.05 % sodium dodecyl sulphate in PBS for 30 seconds to lyse the host macrophages. Lysis was terminated by adding 180 μL promastigote growth medium with 10 % FBS. […] Absorbance measurements, calculations and IC50 determinations were performed as described for the antipromastigote assay (Supporting Information).

[4] = tested on: L. major IR‐173 amastigotes; assay: as above; type: cell-based, Leishmania major; settings: for IC50: read-out: Anti‐amastigote activity, IC50 ±SD, IR‐173; for Selectivity index SI1: L. major IR‐173: IC50 HEK‐293/IC50 amastigote; for Selectivity index SI3: L. major IR‐173: IC50 THP‐1/IC50 amastigote; for Specificity index SpI1: L. major IR‐173: IC50 promastigote/IC50 amastigote
Protocol: as §2

[5] = Macrophage toxicity, resazurin assay; type: cell-based; settings: human, differentiated THP‐1 macrophages, read-out: Cytotoxicity, THP‐1, IC50±SD
Protocol: Macrophage toxicity: Toxicity of the compounds on the differentiated host THP‐1 cells were also evaluated. As mentioned, duplicate plates of differentiated THP‐1 cells were prepared during the anti‐amastigote assay. These plates were incubated for 72 hours to differentiate, instead of replacing the growth medium with parasite‐containing medium after 48 hours. […] Blanks were growth medium without cells. The treated plates were incubated for 72 hours, followed by the addition of 50 μL of resazurin solution (0.01 % in PBS) to each well and 24‐hour incubation.

[6] = Basal cytotoxicity, resazurin assay; settings: human
HEK‐293 cells = assay: Basal cytotoxicity, resazurin assay; settings: read-out: Cytotoxicity, HEK‐293, IC50±SD; HEK‐293 cells, resazurin
[7] = during therapy ref 19; cited from earlier work
in vitro = settings: human, Cytotoxicity, HEK‐293, IC50±SD
[8] = cited from earlier work
[9] = Leishmania major, THP-1, L. major IR‐173 intramacrophage amastigotes
[10] = differentiated THP-1 cells (macrophages)
[11] = HEK-293 cells (ATCC CRL 1573), Cytotoxicity, HEK‐293, IC50±SD, HEK‐293 cells, resazurin
[12] = L. major IR‐173 intramacrophage amastigotes

Structure (SMILES) | IC50 [1] [µM] | IC50 [2] [µM] | IC50 [3] [µM] | IC50 [4, 9] [µM] | IC50 at 72 h [5, 10] [µM] | IC50 [6, 11] [µM] | Selectivity index SI4 [3] | other results
C[C@@H]1[C@H](O)[C@@H](C)/C=C/C=C/C=C/C=C/C=C/C=C/C=C/[C@H](O[C@@H]2O[C@H](C)[C@@H](O)[C@H](N)[C@@H]2O)C[C@@H]2O[C@](O)(C[C@@H](O)C[C@@H](O)[C@H](O)CC[C@@H](O)C[C@@H](O)CC(=O)O[C@H]1C)C[C@H](O)[C@H]2C(=O)O [AMB, amphotericin B, reference compound] | 0.03 ± 0.01 | 0.02 | 0.05 | 0.03 | – | – | – | –
C#CCN1C(=O)CN(/N=C/c2ccc([N+](=O)[O-])o2)C1=O [Compound 1] | 0.51 ± 0.05 | – | – | – | 99.94 ± 0.09 | – | – | fold selective antiparasitic action against L. donovani amastigote in the presence of mammalian cells [3]: more than 100 fold; fold higher potency than the NF antibiotics [3]: up to 30 fold; fold more specificity for donovani amastigote than AMB [3]: 20 fold
CCCCCn1cc(CN2C(=O)CN(/N=C/c3ccc([N+](=O)[O-])o3)C2=O)nn1 [Compound 2] | 0.09 | – | – | – | > 100 | > 100 | – | –
CCCCCCn1cc(CN2C(=O)CN(/N=C/c3ccc([N+](=O)[O-])o3)C2=O)nn1 [Compound 3] | 0.48 ± 0.02 | – | – | – | – | 17.9 ± 1.3 | – | –
CCCCCCCn1cc(CN2C(=O)CN(/N=C/c3ccc([N+](=O)[O-])o3)C2=O)nn1 [Compound 4] | 6.85 ± 0.44 | 0.18 ± 0.05 | – | – | > 100 | > 100 | – | fold selective antiparasitic action against L. donovani amastigote in the presence of mammalian cells [3]: more than 100 fold; fold higher potency than the NF antibiotics [3]: up to 30 fold
CCCCCCCCn1cc(CN2C(=O)CN(/N=C/c3ccc([N+](=O)[O-])o3)C2=O)nn1 [Compound 5] | 0.27 ± 0.02 | – | – | – | – | 31.9 ± 3.55 | – | –
CCCCCCCCCn1cc(CN2C(=O)CN(/N=C/c3ccc([N+](=O)[O-])o3)C2=O)nn1 [Compound 6] | 6.51 ± 1.13 | 4.68 ± 0.32 | – | – | > 100 | 43.8 ± 4.13 | – | Selectivity index SI2 [3]: 12; Specificity index SpI2 [3]: 1.3; fold more specificity for donovani amastigote than AMB [3]: 3 fold
CCCCCCCCCCn1cc(CN2C(=O)CN(/N=C/c3ccc([N+](=O)[O-])o3)C2=O)nn1 [Compound 7] | 0.34 ± 0.02 | – | 6.17 ± 0.47 | < 10 | > 100 | 67.1 ± 5.22 | > 16 | Antipromastigote activity, IC50 ±SD, 9515 [2]: inactive; Selectivity index SI2 [3]: 11; Selectivity index SI1 [4]: 10; Selectivity index SI3 [4]: > 15; IC50 [4, 12]: 6.72 µM
CCCCCCCCCCCn1cc(CN2C(=O)CN(/N=C/c3ccc([N+](=O)[O-])o3)C2=O)nn1 [Compound 8] | 1.24 ± 0.13 | 1.6 ± 0.08 | 4.49 | – | > 100 | 20.3 ± 3.15 | > 22 | Selectivity index SI2 [3]: 5; Specificity index SpI2 [3]: 0.4
CCCCCCCCCCCCn1cc(CN2C(=O)CN(/N=C/c3ccc([N+](=O)[O-])o3)C2=O)nn1 [Compound 9] | 0.38 ± 0.01 | – | – | – | > 100 | – | – | –
O=C1CN(/N=C/c2ccc([N+](=O)[O-])o2)C(=O)N1Cc1cn(CCc2ccc([N+](=O)[O-])cc2)nn1 [Compound 10] | 0.17 | – | – | – | – | – | – | IC50 [6]: 43.7 ± 3.37 µM; IC50 at 72 h [5]: > 100 µM
O=C1CN(/N=C/c2ccc([N+](=O)[O-])o2)C(=O)N1Cc1cn(Cc2ccccc2)nn1 [Compound 11] | 0.68 ± 0.13 | – | – | – | – | 21 ± 3.25 | – | –
Cc1ccc(Cn2cc(CN3C(=O)CN(/N=C/c4ccc([N+](=O)[O-])o4)C3=O)nn2)cc1 [Compound 12] | 0.34 ± 0.11 | – | – | – | – | 41.8 ± 1.21 | – | –
CC(C)c1ccc(Cn2cc(CN3C(=O)CN(/N=C/c4ccc([N+](=O)[O-])o4)C3=O)nn2)cc1 [Compound 13] | 0.57 ± 0.01 | – | 9.13 | – | > 100 | < 10 | > 11 | Antipromastigote activity, IC50 ±SD, 9515 [2]: inactive; IC50 (HEK‐293 cells): 7.27 ± 0.93 µM; Selectivity index SI2 [3]: 1
CC(C)(C)c1ccc(Cn2cc(CN3C(=O)CN(/N=C/c4ccc([N+](=O)[O-])o4)C3=O)nn2)cc1 [Compound 14] | 0.45 ± 0.1 | – | 1.16 ± 0.02 | – | > 100 | 23.2 ± 2.77 | > 86 | Antipromastigote activity, IC50 ±SD, 9515 [2]: inactive; Selectivity index SI2 [3]: 20
O=C1CN(/N=C/c2ccc([N+](=O)[O-])o2)C(=O)N1Cc1cn(Cc2ccc(Br)cc2)nn1 [Compound 15] | 0.5 ± 0.03 | 7.59 ± 0.56 | – | 5.14 ± 0.67 | > 100 | 32.7 ± 4.19 | – | Selectivity index SI1 [4]: 6; Selectivity index SI3 [4]: > 19; Specificity index SpI1 [4]: 0.1
O=C1CN(/N=C/c2ccc([N+](=O)[O-])o2)C(=O)N1Cc1cn(Cc2ccc(Br)cc2F)nn1 [Compound 16] | 0.19 ± 0.01 | – | 9.21 | < 10 | 55.7 ± 1.17 | 14.4 ± 0.84 | 6 | Selectivity index SI2 [3]: 2; Selectivity index SI3 [4]: 9; Specificity index SpI1 [4]: 0.5; IC50 [4, 12]: 6.42 ± 0.38 µM
O=C1CN(/N=C/c2ccc([N+](=O)[O-])o2)C(=O)N1Cc1cn(Cc2ccc(F)cc2)nn1 [Compound 17] | 1.05 ± 0.07 | – | – | – | – | 48.4 ± 1.88 | – | –
O=C1CN(/N=C/c2ccc([N+](=O)[O-])o2)C(=O)N1Cc1cn(Cc2ccc([N+](=O)[O-])cc2)nn1 [Compound 18] | 0.38 | – | – | – | – | – | – | IC50 [6]: 60.2 ± 2.29 µM
O=C1CN(/N=C/c2ccc([N+](=O)[O-])o2)C(=O)N1Cc1cn(Cc2cccc(Br)c2)nn1 [Compound 19] | 0.48 | 1.75 ± 0.11 | – | – | – | 12.6 ± 0.46 | – | –
O=C1CN(/N=C/c2ccc([N+](=O)[O-])o2)C(=O)N1Cc1cn(Cc2cccc(C(F)(F)F)c2)nn1 [Compound 20] | 0.13 ± 0.02 | – | – | – | – | 15.8 ± 3.69 | – | –
CC[C@H]1CN2CCc3cc(OC)c(OC)cc3[C@@H]2C[C@@H]1C[C@H]1NCCc2cc(OC)c(OC)cc21 [EM, Emetine, reference compound] | – | – | – | – | – | 0.01 | – | –
O=C1OCCN1/N=C/c1ccc([N+](=O)[O-])o1 [FZD, furazolidone, reference compound] | 0.37 ± 0.02 | 0.57 ± 0.05 | 4.11 ± 0.78 | 2.8 ± 0.5 | – | – | – | –
O=C1CN(/N=C/c2ccc([N+](=O)[O-])o2)C(=O)N1 [NFT, nitrofurantoin, reference compound] | > 10 | > 10 | 9.92 ± 0.11 | > 10 | > 100 | – | > 10 | excreted unchanged [7]: 33%; IC50 (in vitro): > 100 µM; solubility in DMF ([8]; DMF): 50 mg/mL (≈ 210 mM); solubility in DMSO ([8]; DMSO): 25 mg/mL (≈ 105 mM); solubility in water ([8]; water ref 26): 0.19 mg/mL (≈ 0.798 mM)
O=C(N/N=C/c1ccc([N+](=O)[O-])o1)c1ccc(O)cc1 [NFX, nifuroxazide, reference compound] | > 10 | 4.48 ± 0.1 | 7.29 ± 0.39 | > 10 | > 100 | – | > 14 | Specificity index SpI2 [3]: 0.6; IC50 (in vitro): > 100 µM
NC(=O)N/N=C/c1ccc([N+](=O)[O-])o1 [NFZ, nitrofurazone, reference compound] | 1.22 ± 0.03 | 1.82 ± 0.03 | 4.94 ± 0.61 | 5.75 ± 0.75 | > 100 | > 100 | > 20 | Specificity index SpI2 [3]: 0.4; Selectivity index SI3 [4]: > 17; Specificity index SpI1 [4]: 0.2
